Source: ChEMBL document CHEMBL1127902, “Synthesis of -estradiol-3-benzoate-17-(succinyl-12A-tetracycline): A potential bone-seeking estrogen” (Bioorg Med Chem Lett, 1994)

Experiment: Percent of compound bound to bone mineral hydroxylapatite was determined […]
Settings: Bone element

**Q.** With `C[C@]12CC[C@@H]3c4ccc(OC(=O)c5ccccc5)cc4CC[C@H]3[C@@H]1CC[C@@H]2O` as the compound, how does the Binding read?
**A.** < 1%

**Q.** Which Binding does the source give for `CN(C)[C@@H]1C(O)=C(C(N)=O)C(=O)[C@@]2(O)C(O)=C3C(=O)c4c(O)cccc4[C@@](C)(O)[C@H]3C[C@@H]12` here?
**A.** > 99%

**Q.** Which Binding does the source give for `CN(C)[C@@H]1C(=O)C(C(N)=O)=C(O)[C@@]2(OC(=O)CCC(=O)O[C@H]3CC[C@H]4[C@@H]5CCc6cc(OC(=O)c7ccccc7)ccc6[C@H]5CC[C@]34C)C(O)=C3C(=O)c4c(O)cccc4[C@@](C)(O)C3CC12` (some centres undefined) here?
**A.** > 99%

**Q.** Which Binding does the source give for `C[C@]12CC[C@@H]3c4ccc(O)cc4CC[C@H]3[C@@H]1CC[C@@H]2O` here?
**A.** < 1%
